Laboratory results reported in PubChem BioAssay AID256 (DTP/NCI, 2004).
“And” between values parts separate entries of the source, which are not always exact repeats. Equal entries are not always repeated. Inconclusive results and toxic doses are left out. How the source made its calls: active means survival T/C of 150% or more; inactive means T/C below 125% in these data.

Tested on: CD2F1 mice, L1210 leukemia ip, survival T/C
Assay: NCI In Vivo Anticancer Drug Screen. Data for tumor model L1210 Leukemia (intraperitoneal) in CD2F1 (CDF1) mice
Conditions: higher = longer survival
How it was run: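 In this screen, transplantable tumors were grown in mice given either the compound or its vehicle. Results were expressed as the treated measurement relative to the control measurement.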

[1] = endpoint: mean survival time, dose: 100.0 mg/kg/injection, schedule: Q01DX001 (ip), vehicle: saline with Tween-80
[2] = endpoint: mean survival time, dose: 100.0 mg/kg/injection, schedule: Q04DX002 (ip), vehicle: saline with Tween-80
[3] = endpoint: mean survival time, dose: 200.0 mg/kg/injection, schedule: Q01DX001 (ip), vehicle: saline with Tween-80
[4] = endpoint: mean survival time, dose: 200.0 mg/kg/injection, schedule: Q04DX002 (ip), vehicle: saline with Tween-80
[5] = endpoint: mean survival time, dose: 400.0 mg/kg/injection, schedule: Q01DX001 (ip), vehicle: saline with Tween-80
[6] = endpoint: mean survival time, dose: 400.0 mg/kg/injection, schedule: Q04DX002 (ip), vehicle: saline with Tween-80
[7] = endpoint: mean survival time, dose: 100.0 mg/kg/injection, schedule: Q01DX009 (ip), vehicle: saline with Tween-80
[8] = endpoint: mean survival time, dose: 100.0 mg/kg/injection, schedule: Q04DX003 (ip), vehicle: saline with Tween-80
[9] = endpoint: mean survival time, dose: 200.0 mg/kg/injection, schedule: Q01DX009 (ip), vehicle: saline with Tween-80
[10] = endpoint: mean survival time, dose: 200.0 mg/kg/injection, schedule: Q04DX003 (ip), vehicle: saline with Tween-80
[11] = endpoint: mean survival time, dose: 400.0 mg/kg/injection, schedule: Q01DX009 (ip), vehicle: saline with Tween-80
[12] = endpoint: mean survival time, dose: 400.0 mg/kg/injection, schedule: Q04DX003 (ip), vehicle: saline with Tween-80
[13] = endpoint: mean survival time, dose: 50.0 mg/kg/injection, schedule: Q01DX009 (ip), vehicle: saline
[14] = endpoint: mean survival time, dose: 100.0 mg/kg/injection, schedule: Q01DX009 (ip), vehicle: saline
[15] = endpoint: mean survival time, dose: 50.0 mg/kg/injection, schedule: Q04DX003 (ip), vehicle: saline with Tween-80
[16] = endpoint: mean survival time, dose: 3.0 mg/kg/injection, schedule: Q01DX009 (ip), vehicle: saline with Tween-80
[17] = endpoint: mean survival time, dose: 6.0 mg/kg/injection, schedule: Q01DX009 (ip), vehicle: saline with Tween-80

Measured: T/C

CC1(C)NC(=O)C2CC21C (configuration not stated)
inactive: endpoint: mean survival time, dose: 25.0 mg/kg/injection, schedule: Q04DX002 (ip), vehicle: saline 96 % of control | endpoint: mean survival time, dose: 50.0 mg/kg/injection, schedule: Q04DX002 (ip), vehicle: saline 112 % of control | endpoint: mean survival time, dose: 100.0 mg/kg/injection, schedule: Q04DX002 (ip), vehicle: saline 93 % of control

CC(=O)N1NC2C(=O)N(C3CCCCC3)CC2C1c1ccc(N(C)C)cc1 (configuration not stated)
inactive: [1] 100 % of control | [2] 103 % of control | [3] 100 % of control | [4] 100 % of control | [5] 100 % of control | [6] 92 % of control

c1ccc(C2=NNC(c3ccccn3)=NN2)nc1
inactive: [7] 95 % of control | [8] 97 % of control | [9] 101 % of control | [10] 92 % of control | [11] 97 % of control | [12] 101 % of control

CC(C)N1CCC1CO (configuration not stated)
inactive: endpoint: mean survival time, dose: 25.0 mg/kg/injection, schedule: Q01DX009 (ip), vehicle: saline 96 % of control | [13] 100 % of control | [14] 94 % of control

Cc1ccc(NC(=O)Nc2cccc(NC(=O)COc3ccc(Cl)cc3C(=O)O)c2)cc1S(=O)(=O)F
inactive: [1] 88 % of control | [3] 86 % of control | [5] 89 % of control

[CH3][Tl]([CH3])[Br]
inactive: [2] 100 % of control | [4] 96 % of control | [6] 96 % of control

C=CCN(CC=C)P(=O)(N(CC=C)CC=C)N1CC1
inactive: endpoint: mean survival time, dose: 17.0 mg/kg/injection, schedule: Q01DX015 (ip), vehicle: saline 114 % of control
active: endpoint: mean survival time, dose: 11.0 mg/kg/injection, schedule: Q01DX015 (ip), vehicle: saline 151 % of control

Cc1csc2nccc(Cl)c12
inactive: [1] 100 % of control | [3] 112 % of control | [5] 97 % of control

c1cnc2c(OB(C3CCCCC3)C3CCCCC3)cccc2c1
inactive: [1] 105 % of control | [3] 91 % of control | [5] 91 % of control

CC(=O)c1ccc(Cc2ccc(C(C)=O)cc2)cc1
inactive: endpoint: mean survival time, dose: 100.0 mg/kg/injection, schedule: Q04DX003 (ip), vehicle: Klucel (hydroxypropylcellulose) (HPC) 103 % of control | endpoint: mean survival time, dose: 200.0 mg/kg/injection, schedule: Q04DX003 (ip), vehicle: Klucel (hydroxypropylcellulose) (HPC) 98 % of control | endpoint: mean survival time, dose: 400.0 mg/kg/injection, schedule: Q04DX003 (ip), vehicle: Klucel (hydroxypropylcellulose) (HPC) 97 % of control

CCOC(=O)c1ccc(NC(=O)Nc2cc(Cl)c(Cl)cc2C)cc1
inactive: endpoint: mean survival time, dose: 3.13 mg/kg/injection, schedule: Q01DX001 (ip), vehicle: saline with Tween-80 93 % of control | endpoint: mean survival time, dose: 3.13 mg/kg/injection, schedule: Q04DX003 (ip), vehicle: saline with Tween-80 90 % of control | endpoint: mean survival time, dose: 6.25 mg/kg/injection, schedule: Q01DX001 (ip), vehicle: saline with Tween-80 92 % of control | endpoint: mean survival time, dose: 6.25 mg/kg/injection, schedule: Q01DX009 (ip), vehicle: saline with Tween-80 86 % of control and 89 % of control | endpoint: mean survival time, dose: 6.25 mg/kg/injection, schedule: Q04DX002 (ip), vehicle: saline with Tween-80 91 % of control and 97 % of control | endpoint: mean survival time, dose: 6.25 mg/kg/injection, schedule: Q04DX003 (ip), vehicle: saline with Tween-80 89 % of control | endpoint: mean survival time, dose: 12.5 mg/kg/injection, schedule: Q01DX001 (ip), vehicle: saline with Tween-80 93 % of control | endpoint: mean survival time, dose: 12.5 mg/kg/injection, schedule: Q01DX009 (ip), vehicle: saline with Tween-80 86 % of control | endpoint: mean survival time, dose: 12.5 mg/kg/injection, schedule: Q04DX002 (ip), vehicle: saline with Tween-80 91 % of control | endpoint: mean survival time, dose: 25.0 mg/kg/injection, schedule: Q04DX003 (ip), vehicle: saline with Tween-80 90 % of control | endpoint: mean survival time, dose: 50.0 mg/kg/injection, schedule: Q04DX002 (ip), vehicle: saline with Tween-80 91 % of control | [7] 88 % of control | [6] 88 % of control

O=S(c1ccc(O)cc1)c1ccc(O)cc1
inactive: endpoint: mean survival time, dose: 50.0 mg/kg/injection, schedule: Q01DX009 (ip), vehicle: saline with Tween-80 90 % of control | [7] 94 % of control

O=C(COc1cccc(Cl)c1)Nc1ccc(S(=O)(=O)F)cc1
inactive: [1] 97 % of control | [3] 95 % of control | [5] 91 % of control

COc1ccc(-c2[nH]c(=S)[nH]c(=O)c2CCO)cc1
inactive: [7] 93 % of control | [8] 90 % of control | [10] 88 % of control | [11] 92 % of control | [12] 95 % of control

CCOC(=O)C1=C(C)NC(C)=C(C(=O)OCC)C1C
inactive: [15] 98 % of control and 100 % of control | [8] 101 % of control and 103 % of control and 108 % of control | [10] 95 % of control and 98 % of control and 104 % of control | [12] 122 % of control

O=C(NCCNC(=O)Nc1ccccc1Cl)Nc1ccccc1Cl
inactive: [2] 104 % of control | [4] 97 % of control | [6] 101 % of control

O=C(Nc1ccc(F)cc1)Nc1ccc(Cl)cc1
inactive: [7] 97 % of control | [9] 100 % of control | [11] 103 % of control

COC(=O)[C@H]1[C@H]2C[C@@H]3c4[nH]c5cc(OC)ccc5c4CCN3C[C@H]2C[C@@H](OC(=O)c2cc(OC)c(OC)c(OC)c2)[C@@H]1OC
inactive: [16] 95 % of control | [17] 94 % of control | endpoint: mean survival time, dose: 12.5 mg/kg/injection, schedule: Q04DX003 (ip), vehicle: saline with Tween-80 90 % of control | [15] 89 % of control

NC(=O)CC(N)CO (configuration not stated)
inactive: [13] 93 % of control | [14] 98 % of control | endpoint: mean survival time, dose: 200.0 mg/kg/injection, schedule: Q01DX009 (ip), vehicle: saline 95 % of control | endpoint: mean survival time, dose: 400.0 mg/kg/injection, schedule: Q01DX009 (ip), vehicle: saline 98 % of control

OCCNc1ccc(I)cc1
inactive: [8] 105 % of control | [10] 112 % of control | [12] 103 % of control

CCOC(=O)c1cc2ccccc2n1-c1ccccc1
inactive: [8] 95 % of control | [10] 97 % of control | [12] 95 % of control

CC(=O)OC1CCC2(C)C(CCC3C2CCC2(C)C3CC3OC(CCC(C)O)C(C)C32)C1 (configuration not stated)
inactive: [2] 86 % of control

N#CCCOCCNCCSC(=O)c1ccccc1
inactive: [8] 95 % of control | [10] 101 % of control | [12] 95 % of control

Nc1ccc2ccc(NS(=O)(=O)N3CCCCC3)cc2c1
inactive: endpoint: median survival time, dose: 25.0 mg/kg/injection, schedule: Q01DX009 (ip), vehicle: saline with Tween-80 118 % of control and 101 % of control and 106 % of control | endpoint: median survival time, dose: 50.0 mg/kg/injection, schedule: Q01DX009 (ip), vehicle: saline with Tween-80 100 % of control and 109 % of control and 112 % of control | endpoint: median survival time, dose: 100.0 mg/kg/injection, schedule: Q01DX009 (ip), vehicle: saline with Tween-80 114 % of control and 118 % of control and 119 % of control
active: endpoint: median survival time, dose: 400.0 mg/kg/injection, schedule: Q01DX009 (ip), vehicle: saline with Tween-80 182 % of control

O/N=C\c1ccc(/C=N/O)cc1
inactive: [8] 94 % of control | [10] 92 % of control

CN(C)Cc1c(-c2ccccc2)c(CN(C)C)n2ccccc12
inactive: endpoint: mean survival time, dose: 75.0 mg/kg/injection, schedule: Q01DX001 (ip), vehicle: saline 97 % of control

O=[N+]([O-])c1cccc(N=C(Nc2cccc([N+](=O)[O-])c2)c2ccccc2)c1
inactive: [8] 113 % of control | [10] 107 % of control | [12] 103 % of control

CCCC(O)C(N)CC (configuration not stated)
inactive: endpoint: mean survival time, dose: 100.0 mg/kg/injection, schedule: Q01DX001 (ip), vehicle: saline 98 % of control | endpoint: mean survival time, dose: 200.0 mg/kg/injection, schedule: Q01DX001 (ip), vehicle: saline 90 % of control

Nc1ccc(S(=O)(=O)c2ccc(N)c(S(N)(=O)=O)c2)cc1
inactive: [7] 92 % of control | [9] 91 % of control | [11] 100 % of control

CCOP(=S)(NCCOC)OCC
inactive: [8] 101 % of control | [10] 101 % of control | [12] 100 % of control

COc1ccc2c(c1)CC/C2=N/O
inactive: [8] 97 % of control | [10] 103 % of control | [12] 107 % of control

COc1ccc(C(C#N)=C2C=CC(=NO)C=C2)cc1
inactive: [8] 98 % of control | [10] 95 % of control | [12] 101 % of control

COc1cccc2c1C(=O)c1c(O)c3c(c(O)c1C2=O)C[C@@](O)(C(C)=O)C[C@@H]3OC1CC(N(Cc2ccccc2)Cc2ccccc2)C(O)C(C)O1 (some centres not stated)
inactive: endpoint: mean survival time, dose: 1.5 mg/kg/injection, schedule: Q01DX009 (ip), vehicle: saline with Tween-80 105 % of control | [16] 111 % of control | [17] 117 % of control | endpoint: mean survival time, dose: 24.0 mg/kg/injection, schedule: Q01DX009 (ip), vehicle: saline with Tween-80 115 % of control | endpoint: mean survival time, dose: 48.0 mg/kg/injection, schedule: Q01DX009 (ip), vehicle: saline with Tween-80 94 % of control
active: endpoint: mean survival time, dose: 12.0 mg/kg/injection, schedule: Q01DX009 (ip), vehicle: saline with Tween-80 150 % of control

Cc1ccc(Sc2ccc([N+](=O)[O-])cc2)cc1
inactive: [7] 96 % of control | [8] 100 % of control | [9] 102 % of control | [10] 100 % of control | [11] 96 % of control | [12] 91 % of control
